Test results taken from US20050049186A1, “Peptides mimicking the biological activity of steroid hormones and their uses” (priority 2000, published 2005).
Peptide text beside a SMILES is read from it.

Legend:
[1] = tested on: creatine kinase (CK) specific activity in rat tissues; experiment: Stimulation of creatine kinase specific activity in rat tissues in vivo; conditions: for Creatine kinase specific activity (Experimental/control), Aorta / Creatine kinase specific activity (Experimental/control), Diapysis / Creatine kinase specific activity (Experimental/control), Epipysis / Creatine kinase specific activity (Experimental/control), Uterus / Creatine kinase specific activity (Experimental/control), LV (left ventricle): four hours after treatment, peptides and raloxifene 0.5 mg/rat, mean ± S.E.M., n=15
Procedure: The control goups received 0.5 ml saline containing 0.5% ethanol or tris-saline alone. The various organs were assayed for CK activity four hours after treatment.

[2] = biological target: anti-estradiol mAb, clone 15; experiment: Competitive binding radioimmunoassay with [3H]-estradiol; set-up: species or system mouse; conditions: RIA, FIG. 1; read-out: IC50, competition with [3H]-estradiol for binding sites of anti-estradiol mAb clone 15
[3] = tested on: anti-E2 antibodies, clones 8D9, 11B6 and 2F9; experiment: ELISA: competition with solid-phase estradiol ovalbumin conjugate for other high affinity anti-E2 antibodies; format: binding; conditions: peptide at 0.5 mM
Source text: (§1) ELISA methodology was used first for the initial screening of the various peptides for antibody binding specificity.

[4] = biological target: anti-estradiol mAb clone 15; experiment: Competitive immunoassay: inhibition of binding of labeled E2 (estradiol ovalbumin europium conjugate) to anti-E2 clone 15; set-up: species or system mouse; conditions: Table 5; estradiol ovalbumin europium conjugate
Source text: […]. The linear peptide 1 is 15-amino acid long. We further explored the possibility whether smaller peptides derived from peptide 1 may have antibody binding activity and receptor binding activity. In order to find out the minimum amino acid sequence required in the linear peptide 1 for antibody and receptor binding, several peptides with varying length of from 4 to 14 amino acids long were synthesized, and were first evaluated in terms of binding to anti-estradiol (E2) mAb clone 15. The peptides showing similar or better antibody binding activity than the linear peptide 1 were further evaluated in terms of binding to ERα and β.

[5] = tested on: anti-progesterone, clone 1E11, anti-estriol, clone 9B4, anti-testosterone, clone 5F2; experiment: ELISA: competition with solid phase hapten protein conjugates for homologous anti-steroidal antibodies; format: binding; conditions: data not shown
Source text: as §1

ER β = ER β (Homo sapiens, UniProt Q92731); experiment: Receptor binding assay for estrogen receptor beta
Chain of ER β (Q92731 whole entry, species assumed): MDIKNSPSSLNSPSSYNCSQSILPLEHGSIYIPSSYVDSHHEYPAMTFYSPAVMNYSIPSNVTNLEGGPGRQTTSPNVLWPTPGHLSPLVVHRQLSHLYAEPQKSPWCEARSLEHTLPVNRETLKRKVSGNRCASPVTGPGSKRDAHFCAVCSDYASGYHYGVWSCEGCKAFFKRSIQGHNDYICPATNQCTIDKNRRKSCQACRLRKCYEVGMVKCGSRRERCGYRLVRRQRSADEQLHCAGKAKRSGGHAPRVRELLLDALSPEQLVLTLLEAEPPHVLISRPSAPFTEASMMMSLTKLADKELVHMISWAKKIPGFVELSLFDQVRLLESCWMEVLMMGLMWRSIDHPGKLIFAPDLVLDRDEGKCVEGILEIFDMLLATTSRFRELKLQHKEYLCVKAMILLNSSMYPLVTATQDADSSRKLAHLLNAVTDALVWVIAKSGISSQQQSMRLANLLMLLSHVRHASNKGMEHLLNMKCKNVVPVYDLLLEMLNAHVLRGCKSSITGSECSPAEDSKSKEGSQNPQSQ

anti-E2, clone 15 = experiment: ELISA: competition with solid-phase estradiol ovalbumin conjugate for anti-E2 clone 15; format: binding, mouse
Source text: as §1

[6] = tested on: anti-progesterone mAb clone 1E11; experiment: RIA: competition with [3H]-progesterone for anti-progesterone clone 1E11; set-up: species or system mouse; conditions: FIG. 4, read-out: IC50, competition with [3H]-progesterone for binding sites of anti-progesterone clone 1E11
Source text: In order to confirm the specific binding activity of the peptides 3 and 4 for the anti-progesterone mnAb clone 1E11, a RIA system where the peptides competed with [^3H]-progesterone for the binding sites of clone 1E11 was used. […]

[7] = immature female rats, estradiol 5 μg/rat

| Structure (SMILES) | Creatine kinase specific activity (Experimental/control), Aorta [1, 7] | Creatine kinase specific activity (Experimental/control), Diapysis [1, 7] | Creatine kinase specific activity (Experimental/control), Epipysis [1, 7] | Creatine kinase specific activity (Experimental/control), Uterus [1, 7] | Creatine kinase specific activity (Experimental/control), LV (left ventricle) [1, 7] | IC50 [6] [µM] | other results |
| --- | --- | --- | --- | --- | --- | --- | --- |
| C[C@]12CC[C@@H]3c4ccc(O)cc4CC[C@H]3[C@@H]1CC[C@@H]2O [Estradiol, estradiol] | 2.0 ± 0.18 | 1.87 ± 0.1 | 1.37 ± 0.07 | 1.37 ± 0.07 | – | – | – |
| CC(C)C[C@H](NC(=O)[C@H](C)NC(=O)[C@@H]1CCCN1C(=O)[C@@H](N)CC(C)C)C(=O)N[C@@H](CC(=O)O)C(=O)N1CCC[C@H]1C(=O)N[C@H](C(=O)N[C@@H](CCCCN)C(=O)N[C@@H](CCCNC(=N)N)C(=O)N[C@@H](Cc1c[nH]c2ccccc12)C(=O)N[C@@H](Cc1ccccc1)C(=O)N[C@@H](Cc1ccccc1)C(=O)N[C@@H](CCC(=O)O)C(=O)N[C@H](C(=O)N[C@@H](CCCCN)C(=O)O)[C@@H](C)O)[C@@H](C)O [Peptide 1] (H-LPALDPTKRWFFETK-OH; N-terminus and C-terminus assumed) | 1.35 ± 0.23 | 1.09 ± 0.17 | 1.10 ± 0.09 | 1.6 ± 0.27 | 1.41 ± 03 | – | IC50 [2]: ~5 µM; inhibition of the binding of immobilized estradiol ovalbumin conjugate to other high affinity anti-E2 antibodies [3]: not; IC50 [4]: 1 µM; competing with solid phase hapten protein conjugates for the binding sites of homologous anti-steroidal antibodies [5]: not capable of competing; binding to ER β (ER β; FIG. 3): none; IC50 to ERβ (ER β; Table 5): none; stimulation of CK activity in rat tissues ([1]; higher concentration 2.5 mg/rat, data not shown): stimulated the CK activity in the epiphysis and aorta as well; increase in the specific activity of creatine kinase (CK) in rat tissues ([1]; immature female rats, 4 hours, estradiol 5 μg/rat, peptides 0.5 mg/rat): increase in CK activity only in the uterus and left ventricle; inhibition of the binding of immobilized estradiol ovalbumin conjugate to anti-E2, clone 15 (anti-E2, clone 15; ELISA, peptide at a concentration of 0.5 mM): 36%; recognition of anti-E2 mAb clone 15 (anti-E2, clone 15; initial binding studies): recognized |
| CC[C@H](C)[C@H](NC(=O)[C@@H](NC(=O)[C@H](CO)NC(=O)[C@H](CC(C)C)NC(=O)[C@H](Cc1ccccc1)NC(=O)[C@H](CCC(N)=O)NC(=O)[C@H](C)NC(=O)[C@H](CCC(N)=O)NC(=O)[C@H](CC(=O)O)NC(=O)[C@H](Cc1c[nH]c2ccccc12)NC(=O)[C@@H]1CCCN1C(=O)[C@H](Cc1c[nH]cn1)NC(=O)[C@H](CC(N)=O)NC(=O)[C@@H](N)C(C)C)[C@@H](C)O)C(=O)O [Peptide 3] (H-VNHPWDQAQFLSTI-OH) | – | – | – | – | – | ~100 | – |
| CC(C)[C@H](NC(=O)[C@H](Cc1c[nH]cn1)NC(=O)[C@@H]1CSSC[C@H](NC(=O)[C@H](Cc2ccccc2)NC(=O)[C@@H]2CCCN2C(=O)[C@H](CC(N)=O)NC(=O)[C@@H](N)CO)C(=O)N[C@@H](CCC(N)=O)C(=O)N[C@@H]([C@@H](C)O)C(=O)N[C@@H](CC(=O)O)C(=O)NCC(=O)N[C@@H](CC(=O)O)C(=O)N1)C(=O)N[C@@H](Cc1c[nH]cn1)C(=O)N[C@H](C(=O)O)[C@@H](C)O [Peptide 4] (HELM PEPTIDE1{S.N.P.F.C.Q.T.D.G.D.C.H.V.H.T}$PEPTIDE1,PEPTIDE1,5:R3-11:R3$$$V2.0; N-terminus and C-terminus assumed; bridges inferred) | – | – | – | – | – | ~5 | – |
| CC(=O)[C@H]1CC[C@H]2[C@@H]3CCC4=CC(=O)CC[C@]4(C)[C@H]3CC[C@]12C [Progesterone, progesterone, reference compound] | – | – | – | – | – | < 0.001 | – |
| O=C(c1ccc(OCCN2CCCCC2)cc1)c1c(-c2ccc(O)cc2)sc2cc(O)ccc12 [Raloxifene, raloxifene] | 1.63 ± 0.04 | 1.75 ± 0.13 | 1.41 ± 0.05 | 0.99 ± 0.17 | 1.34 ± 0.11 | – | blocking of the increase in CK activity caused by estradiol or peptides 1 and 2 ([1]; rats treated with combination with raloxifene): blocked in all the tissues with the exception of the epiphysis |
